Laboratory results: a compilation of properties of binary mixtures (doi:10.1016/j.molliq.2021.117163)

Experiment: xn = mol fraction of the nth substance listed
Conditions: 298.15 K, 100 kPa

viscosity (x2 = 0)	viscosity (x2 = 0.05)	viscosity (x2 = 0.1)	viscosity (x2 = 0.3)	viscosity (x2 = 0.4)	viscosity (x2 = 0.5)	viscosity (x2 = 0.6)	viscosity (x2 = 0.7)	viscosity (x2 = 0.8)	viscosity (x2 = 0.9)	viscosity (x1 = 1)	Compound
2.7 mPa·s	3.6 mPa·s	4.4 mPa·s	10 mPa·s	15 mPa·s	22 mPa·s	31.4 mPa·s	44.5 mPa·s	63.5 mPa·s	81.3 mPa·s		CC1COC(=O)O1 (stereo unspecified) + CCCC[n+]1ccn(C)c1.F[B-](F)(F)F
										107.2 mPa·s	CCCC[n+]1ccn(C)c1.F[B-](F)(F)F + CC1COC(=O)O1
